Assay results taken from patent US20090018136A1, “METHODS AND COMPOSITIONS FOR THE TREATMENT OF VASCULAR DISEASE” (priority 2005, published 2009).

How the values were obtained:
[1] = test system: brachial artery; assay: Study 1: brachial artery flow-mediated and nitroglycerin-mediated vasodilation by ultrasound; format: in vivo, human
Procedure: The technique was carried out as described in Prasad et al., Circulation, 2000. 101(20): p. 2349-54. Briefly, using an 11 MHz high resolution ultrasound transducer (Acuson Inc) in a temperature-controlled room, brachial diameter was measured above the antecubital fossa in the non-dominant arm. Flow-mediated vasodilation (FMD) was measured by inflating a BP cuff on the forearm to >200 mm Hg for 5 minutes, deflating rapidly, and measuring brachial diameter at 1 minute after onset of hyperemia. For all measurements three diameters were measured on three separate end-diastolic frames and averaged. To obtain the maximal brachial artery dilation that represents FMD the following equation was used: (average diameter with hyperemia−average baseline diameter)÷average baseline diameter X 100. To measure the endothelium-independent vasodilator response, subjects were given sublingual nitroglycerin 0.4 mg and the brachial diameter was measured as above after 5 minutes. To obtain endothelium-independent vasodilation the following equation was used: (average diameter post nitroglycerin-average baseline diameter)÷average baseline diameter X 100. For both study 1 and study 2, the primary end point after statistical analysis was a reduction of systolic, mean and diastolic BP during BH4 therapy. Secondary end points included improvement of endothelial function as FMD. Linear mixed effects models for repeated measures data were used to analyze change in BP from baseline to end of treatment period and differences in change between 100 mg and 200 mg dose groups. A quadratic term for week was included in the model to account for non-linear trends over the treatment period. Dose, week and week squared were the main effect terms in the model; dose by week and dose by week squared were the interaction terms in the model. Significant interaction terms indicate a difference in the pattern of change between the two dose groups. FMD data was analyzed using the two-tailed student t-test.

[2] = test system: hypertensive patients; assay: Adverse events in Study 1 and Study 2 of oral BH4; format: in vivo, human; details: either study
Description: Subjects between the ages of 18 and 75 years were recruited if they had uncontrolled hypertension on traditional stable anti-hypertensive therapy (BP≧135/85), or newly diagnosed hypertension (BP≧140/90). Patients were continued on their current anti-hypertensive therapy which remained unchanged. The criteria for exclusion were: female subjects with childbearing potential, history of recently symptomatic coronary or peripheral vascular disease, known secondary causes for hypertension, severe uncontrolled hypertension (BP>180 mmHg systolic and/or 110 mmHg diastolic), severe co-morbid conditions which would limit life expectancy to less than 6 months, renal or hepatic dysfunction, alteration of any concomitant anti-hypertensive therapy within the last 6 weeks, and any bleeding disorders. BH4 powder was obtained from Schircks Laboratories (Jona, Switzerland). BH4 when administered with vitamin C was compounded with vitamin C at a ratio of 1 mg of vitamin C/1 mg BH4 into appropriate sized capsules. Subjects were advised to keep the pills in a freezer or refrigerator.
Of the 20 subjects who qualified for participation, 4 were excluded during the run-in phase because of inability to return for follow-up appointments. There were 6 male subjects, mean age 59.5±8.3 years. […] Mean blood pressure was calculated as: (SBP+2×DBP)/3. […]

[3] = test system: beagles; details: dog, in vivo, po, 100 mg/kg
Procedure: This study evaluated the cardiovascular effects of high doses of 6R-BH4 in combination with the PDE5 inhibitor sildenafil citrate in vivo. Eight male research nonnaïve and naïve purebred beagles were dosed in a double Latin square crossover design as described in the following table. All animals were dosed by oral gavage. Test articles were administered at a dose volume of 5 mL/kg (for a total volume of 10 mL/kg for the combination dose); control animals were dosed at a dose volume of 10 mL/kg. 6R-BH4 (sapropterin dihydrochloride) provided as 300 mg tablets (100 mg active 6R-BH4/tablet) stored at room temperature with desiccant.
At initiation of treatment, the animals were approximately 7 to 10 months old, and their body weights prior to dosing ranged from 7.8 to 12.0 kg.
At least 2 weeks prior to initiation of treatment, animals were fasted overnight, anesthetized, and an electrocardiogram (ECG) and blood pressure transmitter were implanted into the abdomen and sutured to the abdominal wall. The blood pressure catheter was placed in an artery and advanced to the abdominal aorta. Animals were checked twice daily (a.m. and p.m.) for mortality, abnormalities, and signs of pain and distress. Additional findings were recorded as observed.
Detailed observations were taken three times during the predose phase (including the day before dosing) and on Days 3 and 10 of the dosing phase. For each dosing day, ECG and pressure measurements were recorded for at least 90 minutes prior to dosing, continuously for at least 8 hours after dosing, and then for one period of at least 15 minutes in duration each hour through at least 24 hours postdose. Blood pressure measurements included systolic, diastolic, and mean arterial pressures and pulse pressure (systolic-diastolic). […]
Quantitative evaluation of ECG measurements, including RR interval, QT, and rate-corrected QT (QTc, using Fridericia's method), were done.
Positive inotropic effects (+dP/dtmax) and heart rate were calculated from a left ventricular pressure signal predose and approximately 2, 4, 8, 12, and 24 hours postdose. […]

[4] = test system: patients with poorly controlled hypertension; details: cited from earlier work
[5] = test system: cardiac allograft; details: cited from earlier work
[6] = test system: forearm blood flow; details: patients with diabetes or hypercholesterolemia but not normal subjects; cited from earlier work
[7] = test system: venous grafts and arteries; details: acute BH4; diabetic subjects undergoing coronary artery bypass graft surgery; cited from earlier work
[8] = test system: coronary blood flow velocity; details: BH4 infused during angiography, patients with endothelial dysfunction; cited from earlier work

Compound: C[C@H](O)[C@H](O)[C@H]1CNc2nc(N)[nH]c(=O)c2N1 [BH4, tetrahydrobiopterin]
- Flow-mediated vasodilation of the brachial artery ([1]; Study 1, 6 weeks after termination of therapy, p=ns compared to baseline): 3.7±1.3%
- Flow-mediated vasodilation of the brachial artery ([1]; Study 1, after 8 weeks of BH4, baseline mean 3.4±1%, p=0.05, n=6): 8.2±3.4%
- Nitroglycerin-mediated vasodilation ([1]; Study 1, after BH4, 11.9±3% before, p=0.1, remained unchanged): 16.1±5%
- adverse events [2]: no significant adverse events
- effect on any of the cardiovascular parameters measured [3]: No effect
- blood pressure after cessation of therapy ([4]; 6 weeks after cessation): returned to baseline values
- FMD following withdrawal ([4]; after 1 week following withdrawal): returned to baseline
- FMD ([4]; after 8 weeks of oral BH4 (5 mg/kg/d, 10 mg/kg/d), eight patients): increased significantly
- treatment time after which blood pressure reduction was significant ([4]; human, in vivo): 3 weeks
- systolic and diastolic pressures ([4]; oral BH4 5 or 10 mg/kg/d over 8 weeks): significantly reduced
- mean graft survival time ([5]; BH4 50 mg/kg every 8 hours intramuscularly for 7 days, untreated allografts 7.1±0.7 days, p<0.05): 12.3 ± 4.9 days
- allograft survival ([5]; allogeneic mouse heart transplantation): significantly prolonged
- Nitrate and nitrite concentrations in plasma ([5]; day 6, also elevated in untreated animals): elevated
- NO-mediated effects on forearm blood flow [6]: augment
- vascular function in venous grafts and arteries [7]: restores
- abnormal vasoconstriction to acetylcholine [8]: prevented
